Results on two compounds are retold here after paper PMC8213057, “Targeting ALK2: An Open Science Approach to Developing Therapeutics for the Treatment of Diffuse Intrinsic Pontine Glioma” (Journal of Medicinal Chemistry, 2020).

In one test the target is CDK9/cyclin T2 (Homo sapiens, UniProt P50750). The settings on record: 1 μM; Run 1, Run 2.
A further test deals with MSK2/RPS6KA4 (Homo sapiens, UniProt O75676). To be noted: 1 μM; Run 1, Run 2.
Another test has as its target EPHA7 (Homo sapiens, UniProt Q15375). Kind of test: biochemical. To be noted: read-out: % enzyme activity, 1 μM; Run 1, Run 2.
The target of the next test is T1, MKK7 (Homo sapiens, UniProt O14733).
T1 sequence (O14733 1-419): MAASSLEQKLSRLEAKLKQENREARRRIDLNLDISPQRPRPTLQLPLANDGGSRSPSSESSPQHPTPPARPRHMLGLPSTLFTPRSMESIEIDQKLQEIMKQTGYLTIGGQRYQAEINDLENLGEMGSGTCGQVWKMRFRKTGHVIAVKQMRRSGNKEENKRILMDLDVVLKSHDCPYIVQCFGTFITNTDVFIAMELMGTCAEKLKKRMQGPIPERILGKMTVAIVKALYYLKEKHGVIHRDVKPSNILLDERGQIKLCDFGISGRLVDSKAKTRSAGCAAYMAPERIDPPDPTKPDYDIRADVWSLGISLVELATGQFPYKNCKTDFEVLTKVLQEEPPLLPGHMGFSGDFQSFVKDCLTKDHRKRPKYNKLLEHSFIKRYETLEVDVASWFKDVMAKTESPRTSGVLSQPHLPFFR
Kind of test: biochemical. To be noted: read-out: % enzyme activity, 1 μM; Run 1, Run 2.

The next test deals with ALK (Homo sapiens, UniProt Q9UM73). Kind of test: biochemical. The settings on record: read-out: % enzyme activity, 1 μM; Run 1, Run 2.
The target of another test is RAF1 (Homo sapiens, UniProt P04049). Nature of the test: biochemical. To be noted: read-out: % enzyme activity, 1 μM; Run 1, Run 2.
A further test has as its target ACK1 (Homo sapiens, UniProt Q07912). Nature of the test: biochemical. To be noted: read-out: % enzyme activity, 1 μM; Run 1, Run 2.
For the next test, the target named is SIK1 (Homo sapiens, UniProt P57059). The settings on record: 1 μM; Run 1, Run 2.
A further test has as its target JNK2 (Homo sapiens, UniProt P45984). To be noted: 1 μM; Run 1, Run 2.
Another test deals with RON/MST1R (Homo sapiens, UniProt Q04912). The settings on record: 1 μM; Run 1, Run 2.
For another test, the target named is T2, NEK8 (Homo sapiens, UniProt Q86SG6).
T2 sequence (Q86SG6 1-692): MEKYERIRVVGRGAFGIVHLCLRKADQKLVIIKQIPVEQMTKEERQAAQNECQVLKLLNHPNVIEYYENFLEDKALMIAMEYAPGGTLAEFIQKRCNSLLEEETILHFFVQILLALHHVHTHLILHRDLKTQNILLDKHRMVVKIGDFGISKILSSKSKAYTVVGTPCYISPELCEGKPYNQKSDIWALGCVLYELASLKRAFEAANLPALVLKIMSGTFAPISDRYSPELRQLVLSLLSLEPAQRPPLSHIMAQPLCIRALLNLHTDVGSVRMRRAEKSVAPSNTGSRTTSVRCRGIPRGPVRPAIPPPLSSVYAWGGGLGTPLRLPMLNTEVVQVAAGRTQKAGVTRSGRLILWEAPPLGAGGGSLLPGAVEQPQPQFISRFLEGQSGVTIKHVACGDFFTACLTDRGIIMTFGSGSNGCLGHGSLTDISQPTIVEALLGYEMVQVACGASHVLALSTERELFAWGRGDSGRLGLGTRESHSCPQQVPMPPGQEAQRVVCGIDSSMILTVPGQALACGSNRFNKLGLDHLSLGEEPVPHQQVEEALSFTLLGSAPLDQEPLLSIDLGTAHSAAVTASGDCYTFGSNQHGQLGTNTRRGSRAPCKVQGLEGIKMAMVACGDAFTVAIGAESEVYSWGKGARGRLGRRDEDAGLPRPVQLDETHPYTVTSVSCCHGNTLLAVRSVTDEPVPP
Kind of test: biochemical. To be noted: read-out: % enzyme activity, 1 μM; Run 1, Run 2.

A further test concerns the target STK38L/NDR2 (Homo sapiens, UniProt Q9Y2H1). To be noted: 1 μM; Run 1, Run 2.
For a further test, the target named is T3, BRAF (Homo sapiens, UniProt P15056).
T3 construct: purchased Reaction Biology Corporation
Kind of test: 375-member kinase panel. It is filed as biochemical. The settings on record: Run 1, Run 2; for % enzyme activity: 1 μM; for remaining activity at 1 µM: read-out: % enzyme activity, 1 μM.

For another test, the target named is FES/FPS (Homo sapiens, UniProt P07332). Nature of the test: biochemical. To be noted: read-out: % enzyme activity, 1 μM; Run 1, Run 2.
For a further test, the target named is PAK2 (Homo sapiens, UniProt Q13177). Kind of test: biochemical. To be noted: read-out: % enzyme activity, 1 μM; Run 1, Run 2.
The next test concerns the target MEKK1 (Homo sapiens, UniProt Q13233). To be noted: 1 μM; Run 1, Run 2.
A further test concerns the target DYRK1B (Homo sapiens, UniProt Q9Y463). To be noted: 1 μM; Run 1, Run 2.
For the next test, the target named is T4, DYRK3 (Homo sapiens, UniProt O43781).
T4 sequence (O43781 1-588): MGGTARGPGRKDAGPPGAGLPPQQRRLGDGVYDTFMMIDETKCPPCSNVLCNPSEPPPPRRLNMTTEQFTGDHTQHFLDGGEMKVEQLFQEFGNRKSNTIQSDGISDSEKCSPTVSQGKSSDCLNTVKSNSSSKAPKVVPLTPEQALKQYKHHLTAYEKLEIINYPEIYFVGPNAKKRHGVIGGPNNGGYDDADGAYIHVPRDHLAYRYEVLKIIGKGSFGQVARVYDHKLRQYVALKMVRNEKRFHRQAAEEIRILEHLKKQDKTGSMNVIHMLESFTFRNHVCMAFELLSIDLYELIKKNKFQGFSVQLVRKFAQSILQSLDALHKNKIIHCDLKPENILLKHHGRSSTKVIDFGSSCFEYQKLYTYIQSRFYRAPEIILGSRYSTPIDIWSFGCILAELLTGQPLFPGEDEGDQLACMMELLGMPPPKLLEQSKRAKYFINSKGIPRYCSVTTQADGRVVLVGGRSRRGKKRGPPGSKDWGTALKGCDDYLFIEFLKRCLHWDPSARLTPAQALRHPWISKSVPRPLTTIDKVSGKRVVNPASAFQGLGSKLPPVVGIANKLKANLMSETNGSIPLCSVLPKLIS
Kind of test: biochemical. To be noted: read-out: % enzyme activity, 1 μM; Run 1, Run 2.

Several values for one entry are separate records, joined by “and”; a condition that tells them apart may be missing. Identical values can stand only once. A value given as a limit tells only on which side of the number the result lay.

T3 sequence (P15056 whole entry): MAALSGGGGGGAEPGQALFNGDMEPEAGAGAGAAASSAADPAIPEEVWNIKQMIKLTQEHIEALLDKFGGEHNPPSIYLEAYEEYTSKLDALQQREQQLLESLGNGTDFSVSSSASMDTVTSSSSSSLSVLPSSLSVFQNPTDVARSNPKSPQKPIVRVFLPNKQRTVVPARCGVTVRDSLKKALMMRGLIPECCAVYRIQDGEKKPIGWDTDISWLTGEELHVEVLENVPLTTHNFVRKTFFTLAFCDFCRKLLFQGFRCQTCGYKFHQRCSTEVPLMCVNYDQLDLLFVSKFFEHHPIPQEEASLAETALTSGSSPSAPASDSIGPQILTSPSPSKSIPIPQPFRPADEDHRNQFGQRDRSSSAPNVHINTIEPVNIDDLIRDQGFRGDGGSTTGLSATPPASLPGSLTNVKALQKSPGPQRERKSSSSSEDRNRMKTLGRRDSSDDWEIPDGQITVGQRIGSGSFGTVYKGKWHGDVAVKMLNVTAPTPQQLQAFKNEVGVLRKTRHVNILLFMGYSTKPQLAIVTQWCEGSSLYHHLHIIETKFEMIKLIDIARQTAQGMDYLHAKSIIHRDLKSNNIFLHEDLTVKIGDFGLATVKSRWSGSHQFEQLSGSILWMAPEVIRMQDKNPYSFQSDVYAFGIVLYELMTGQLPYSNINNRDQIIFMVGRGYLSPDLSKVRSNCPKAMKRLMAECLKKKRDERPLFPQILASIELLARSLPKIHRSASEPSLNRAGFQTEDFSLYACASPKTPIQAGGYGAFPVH
Sequence of ALK (Q9UM73 19-1620): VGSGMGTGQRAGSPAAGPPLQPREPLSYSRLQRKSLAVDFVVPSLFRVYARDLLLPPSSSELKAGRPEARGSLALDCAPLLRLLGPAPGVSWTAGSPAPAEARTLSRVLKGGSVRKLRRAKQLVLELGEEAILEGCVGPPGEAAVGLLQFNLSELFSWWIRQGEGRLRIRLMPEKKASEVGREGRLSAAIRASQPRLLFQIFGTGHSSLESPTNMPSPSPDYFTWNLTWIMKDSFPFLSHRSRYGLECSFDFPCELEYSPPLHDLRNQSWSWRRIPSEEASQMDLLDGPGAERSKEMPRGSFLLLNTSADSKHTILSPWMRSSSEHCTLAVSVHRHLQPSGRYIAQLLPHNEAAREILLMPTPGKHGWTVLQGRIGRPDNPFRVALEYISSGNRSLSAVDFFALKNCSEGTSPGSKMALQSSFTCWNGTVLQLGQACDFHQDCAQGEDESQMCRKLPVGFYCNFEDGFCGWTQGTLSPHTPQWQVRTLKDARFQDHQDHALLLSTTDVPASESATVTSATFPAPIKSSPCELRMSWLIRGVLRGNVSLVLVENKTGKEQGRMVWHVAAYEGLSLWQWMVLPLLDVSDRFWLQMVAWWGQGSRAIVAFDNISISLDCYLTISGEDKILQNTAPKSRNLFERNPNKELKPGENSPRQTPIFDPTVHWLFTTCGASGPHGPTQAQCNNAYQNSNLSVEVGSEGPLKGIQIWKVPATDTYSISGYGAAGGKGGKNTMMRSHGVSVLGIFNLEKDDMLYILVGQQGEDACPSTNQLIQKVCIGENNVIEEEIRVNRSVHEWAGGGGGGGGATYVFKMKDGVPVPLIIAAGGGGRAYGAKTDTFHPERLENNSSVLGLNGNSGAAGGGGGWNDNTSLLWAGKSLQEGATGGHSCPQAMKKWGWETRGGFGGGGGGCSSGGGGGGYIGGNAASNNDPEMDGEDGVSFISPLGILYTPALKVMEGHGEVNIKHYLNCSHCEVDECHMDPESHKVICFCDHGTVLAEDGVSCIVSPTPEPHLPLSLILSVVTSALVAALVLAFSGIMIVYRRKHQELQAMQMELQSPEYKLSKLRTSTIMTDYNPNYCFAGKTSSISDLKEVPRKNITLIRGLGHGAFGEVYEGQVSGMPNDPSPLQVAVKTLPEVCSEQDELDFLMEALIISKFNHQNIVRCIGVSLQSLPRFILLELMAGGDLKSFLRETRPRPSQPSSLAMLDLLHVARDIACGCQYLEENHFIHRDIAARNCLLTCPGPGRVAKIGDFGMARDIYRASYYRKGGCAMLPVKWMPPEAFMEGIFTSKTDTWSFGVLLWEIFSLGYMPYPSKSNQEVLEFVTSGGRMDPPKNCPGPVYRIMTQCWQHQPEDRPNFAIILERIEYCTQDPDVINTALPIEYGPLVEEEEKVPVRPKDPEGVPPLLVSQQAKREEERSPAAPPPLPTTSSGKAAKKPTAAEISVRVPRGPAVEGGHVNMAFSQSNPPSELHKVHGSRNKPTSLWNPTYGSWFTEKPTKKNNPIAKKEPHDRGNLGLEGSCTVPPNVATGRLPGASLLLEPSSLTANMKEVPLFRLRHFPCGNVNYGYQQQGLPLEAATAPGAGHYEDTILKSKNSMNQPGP
Sequence of DYRK1B (Q9Y463 whole entry): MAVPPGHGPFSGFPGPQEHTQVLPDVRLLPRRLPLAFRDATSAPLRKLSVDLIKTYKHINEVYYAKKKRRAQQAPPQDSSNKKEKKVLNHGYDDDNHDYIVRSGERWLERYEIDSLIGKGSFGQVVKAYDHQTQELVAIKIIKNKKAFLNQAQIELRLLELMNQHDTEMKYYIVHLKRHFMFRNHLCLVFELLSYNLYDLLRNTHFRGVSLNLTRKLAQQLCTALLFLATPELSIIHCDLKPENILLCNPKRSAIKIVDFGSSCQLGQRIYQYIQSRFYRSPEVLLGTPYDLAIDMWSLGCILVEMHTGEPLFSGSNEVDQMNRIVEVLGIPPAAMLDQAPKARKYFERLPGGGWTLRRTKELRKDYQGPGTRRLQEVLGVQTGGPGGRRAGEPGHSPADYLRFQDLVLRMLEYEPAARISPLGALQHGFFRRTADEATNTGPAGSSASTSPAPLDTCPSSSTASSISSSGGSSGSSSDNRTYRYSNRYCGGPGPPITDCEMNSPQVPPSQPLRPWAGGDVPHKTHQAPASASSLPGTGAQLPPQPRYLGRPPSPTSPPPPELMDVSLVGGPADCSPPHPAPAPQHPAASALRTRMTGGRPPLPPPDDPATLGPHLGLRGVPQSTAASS
Sequence of JNK2 (P45984 whole entry): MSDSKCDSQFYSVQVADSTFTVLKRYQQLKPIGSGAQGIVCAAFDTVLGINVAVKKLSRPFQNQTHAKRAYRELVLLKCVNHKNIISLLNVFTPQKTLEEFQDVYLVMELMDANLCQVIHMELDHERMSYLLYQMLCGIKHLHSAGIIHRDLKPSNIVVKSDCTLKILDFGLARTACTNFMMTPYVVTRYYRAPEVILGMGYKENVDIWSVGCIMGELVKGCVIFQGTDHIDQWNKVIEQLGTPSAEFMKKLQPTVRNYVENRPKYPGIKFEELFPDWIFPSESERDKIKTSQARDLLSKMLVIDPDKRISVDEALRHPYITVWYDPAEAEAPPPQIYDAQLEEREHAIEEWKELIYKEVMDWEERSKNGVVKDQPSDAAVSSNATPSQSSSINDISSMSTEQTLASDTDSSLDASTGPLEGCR
Sequence of PAK2 (Q13177 whole entry): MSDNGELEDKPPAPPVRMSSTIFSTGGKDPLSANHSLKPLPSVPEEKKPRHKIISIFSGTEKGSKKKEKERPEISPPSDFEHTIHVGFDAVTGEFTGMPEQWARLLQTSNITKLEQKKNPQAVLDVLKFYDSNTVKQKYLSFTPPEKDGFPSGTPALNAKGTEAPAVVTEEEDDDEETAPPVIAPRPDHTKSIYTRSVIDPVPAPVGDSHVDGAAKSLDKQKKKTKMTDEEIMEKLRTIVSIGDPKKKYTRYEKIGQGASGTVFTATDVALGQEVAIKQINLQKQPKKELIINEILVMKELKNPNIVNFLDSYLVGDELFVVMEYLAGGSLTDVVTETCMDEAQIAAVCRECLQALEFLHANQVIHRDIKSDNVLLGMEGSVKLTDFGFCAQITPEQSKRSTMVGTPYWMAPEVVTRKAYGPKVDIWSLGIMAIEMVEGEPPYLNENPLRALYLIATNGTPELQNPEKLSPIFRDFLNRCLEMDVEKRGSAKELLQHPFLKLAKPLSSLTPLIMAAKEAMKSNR
Sequence of FES/FPS (P07332 whole entry): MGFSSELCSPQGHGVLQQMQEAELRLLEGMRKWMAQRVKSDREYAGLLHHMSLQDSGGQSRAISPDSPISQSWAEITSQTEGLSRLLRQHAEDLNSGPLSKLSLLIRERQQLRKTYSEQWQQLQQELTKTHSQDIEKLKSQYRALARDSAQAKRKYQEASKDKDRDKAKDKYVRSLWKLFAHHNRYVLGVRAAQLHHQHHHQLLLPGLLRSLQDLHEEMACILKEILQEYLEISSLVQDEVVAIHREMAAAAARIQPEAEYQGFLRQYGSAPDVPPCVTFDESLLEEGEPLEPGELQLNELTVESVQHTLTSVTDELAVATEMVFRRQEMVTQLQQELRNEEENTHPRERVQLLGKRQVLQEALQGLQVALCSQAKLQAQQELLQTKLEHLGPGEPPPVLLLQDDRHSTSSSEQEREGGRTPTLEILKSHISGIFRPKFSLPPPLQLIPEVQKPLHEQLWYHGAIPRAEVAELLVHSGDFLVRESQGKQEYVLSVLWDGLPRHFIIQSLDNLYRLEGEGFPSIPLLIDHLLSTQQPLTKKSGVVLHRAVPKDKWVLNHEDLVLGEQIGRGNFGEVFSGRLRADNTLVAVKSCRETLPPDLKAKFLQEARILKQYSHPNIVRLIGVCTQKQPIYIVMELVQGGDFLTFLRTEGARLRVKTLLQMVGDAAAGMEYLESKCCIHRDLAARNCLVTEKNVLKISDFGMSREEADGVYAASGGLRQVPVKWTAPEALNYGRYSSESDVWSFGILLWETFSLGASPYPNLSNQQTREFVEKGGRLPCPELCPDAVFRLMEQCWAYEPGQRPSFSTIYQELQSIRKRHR

On to `COc1cc(-c2cncc(-c3ccc(N4C[C@@H](C)N(C)[C@@H](C)C4)cc3)c2C)cc(F)c1C(N)=O` [Compound 26c, 2-Fluoro-6-methoxy-4-(4-methyl-5-(4-((3R,5S)-3,4,5-trimethylpiperazin-1-yl)phenyl)pyridin-3-yl)benzamide], for which the “% enzyme activity” value on CDK9/cyclin T2 turned out to be 100.35%; at MSK2/RPS6KA4, 92.01%; at SIK1 it was 91.60%; on JNK2 it was 94.14%; at RON/MST1R it was 104.29%; on STK38L/NDR2, 102.97%. Further, the “% enzyme activity” value at BRAF was 40.52%; at MEKK1 it was 97.31%; at DYRK1B, 58.52%. The same compound came in with a CYP inhibition at CYP3A4-Testosterone of more than 50 µM. Besides, the remaining activity at 1 µM is 98.4% on EPHA7; 98.7% at MKK7; 101% at ALK; 85.5% at RAF1; 79.5% at ACK1; 109% at NEK8. The remaining activity at 1 µM at BRAF stood at 41.1%; on FES/FPS it was 98.7%; on PAK2 it was 104%; on DYRK3, 96%. The % enzyme activity at 1 μM in the test on ZAK/MLTK was 46.6%.

On to `COc1cc(-c2cncc(-c3ccc(N4CCN(C)CC4)cc3)c2C)cc(F)c1C(N)=O` [Compound 26a, 2-Fluoro-6-methoxy-4-(4-methyl-5-(4-(4-methylpiperazin-1-yl)phenyl)pyridin-3-yl)benzamide], for which the “% enzyme activity” value on CDK9/cyclin T2 came out at 99.00%; on MSK2/RPS6KA4, 96.56%; at SIK1, 82.71%; at JNK2, 91.99%; at RON/MST1R, 97.00%; at STK38L/NDR2, 98.69%. Also, the “% enzyme activity” value on BRAF worked out at 28.77%; on MEKK1, 92.92%; on DYRK1B it was 39.80%. At CYP3A4-Testosterone, this compound came in with a CYP inhibition of more than 50 µM. The remaining activity at 1 µM stood at 101% at EPHA7; 93% at MKK7; 99.9% at ALK; 78.7% at RAF1; 65.5% at ACK1; 98.4% on NEK8. Further, the remaining activity at 1 µM worked out at 28.8% at BRAF, 99.9% at FES/FPS, 101% at PAK2 and 90.4% on DYRK3. Also, in the test on ZAK/MLTK, the % enzyme activity at 1 μM is 31.3% and 30.9%.
